Data on twelve molecules can be found in PubChem BioAssay (NCI).

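Following 48 hours of exposure in 96-well plates, responses at five concentrations were used to interpolate endpoints linearly. The concentration for full growth arrest is given as TGI.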 Where a SMILES comes first, the peptide text is derived from it. The star is where a group is joined. Boc = CC(C)(C)OC(=O)*; OBn = c1ccc(CO*)cc1 Bounds are passed on as bounds.

Holding throughout (test): NCI tumour cell line growth inhibition, 48 h
The test system of assay [1] is SN12C renal.
For assay [2], the system named is CAKI-1 renal.
In assay [3] the test system is M19-MEL melanoma.
Assay [4] deals with UACC-257 melanoma.
In assay [5] the test system is LOX IMVI melanoma.
Assay [6] concerns XF 498 CNS.
In assay [7] the test system is HCC-2998 colon.
Assay [8] deals with HL-60(TB) leukemia.
In assay [9] the test system is U251 CNS.
The subject of assay [10] is BT-549 breast.
Assay [11] deals with SF-539 CNS.
Assay [12] relates to SNB-78 CNS.

In the case of `Cc1cn(C2CC(CCCO)C(CO)O2)c(=O)[nH]c1=O` (configuration not stated), the TGI in assay [1], in [2], in assay [3], in assay [4], in assay [5] and in assay [6] was greater than 100 µM throughout. The TGI in assay [7], in [8] and in [9] was greater than 100 µM in each case.

`CS[C@]12[C@@H]3C(=O)N(C)C(=O)[C@@H]3[C@](C)(C(=O)N1C)C(=O)N2c1ccccc1`: the TGI in [10], in assay [1], in assay [2], in assay [11], in assay [4] and in assay [5] was greater than 100 µM in each case. The TGI in assay [7], in [8] and in assay [9] was greater than 100 µM throughout.

For the molecule `COc1cccc(/C(Cl)=C(\C=O)c2cccc(OC)c2)c1`, the TGI was 30 µM in assay [12]; 34.7 µM in [1]; 70 µM in assay [2]; 29 µM in assay [3]; 37.1 µM in assay [11]; 42.4 µM in assay [4]. Moreover, the TGI is 20.3 µM in assay [5]; 27.1 µM in [6]; 30.5 µM in [7]; 12.5 µM in [8]; 22.2 µM in assay [9].

`O=S(=O)(c1ccc(-c2nnc(-c3ccc(F)cc3)o2)cc1)c1ccc(-c2nnc(-c3ccc(F)cc3)o2)cc1`: the TGI in [10], in [1], in assay [2], in [11], in assay [4] and in assay [5] was greater than 100 µM in each case. Moreover, the TGI in [7], in [8] and in [9] was greater than 100 µM throughout.

For `CCCCCCCCCC(=O)N[C@@H](c1ccco1)[C@@H](O)C(=O)O[C@H]1C[C@@]2(O)[C@@H](OC(=O)c3ccccc3)[C@@H]3[C@]4(OC(C)=O)CO[C@@H]4C[C@H](O)[C@@]3(C)C(=O)[C@H](OC(C)=O)C(=C1C)C2(C)C`, the TGI in assay [10] was 1.07 µM; in [1] it was 11.4 µM; in [2], greater than 38.9 µM; in assay [11] it was 0.17 µM; in [4], 11.7 µM; in assay [5], 7.74 µM. The figures for the TGI in assay [7], in assay [8] and in assay [9] were 0.736 µM, 0.0292 µM and 2.34 µM, respectively.

As for `CCOC(=O)C(C)Sc1nnc(COc2ccccc2OC)n1-c1ccccc1` (configuration not stated), the TGI in [12], in assay [1], in assay [2], in assay [3], in assay [11] and in assay [4] was greater than 100 µM each time. The TGI was 34.4 µM in [5], greater than 100 µM in assay [7], greater than 100 µM in assay [8] and greater than 100 µM in assay [9].

With `COC(=O)c1c(CC(Cc2ccc3c(c2)CCCC3)C(=O)OC)ccc2c1CCCC2` (configuration not stated), the TGI in assay [10], in assay [1], in assay [2], in [11], in [4] and in [5] was greater than 100 µM in each case. Also, the TGI in assay [7] was greater than 100 µM; in [8], 42.4 µM; in assay [9], greater than 100 µM.

As to `CC(C)(C)C(=O)OCC1OC(N=[N+]=[N-])C(OC(=O)C(C)(C)C)C(OC(=O)C(C)(C)C)C1OC(=O)C(C)(C)C` (configuration not stated), the TGI in assay [12], in assay [1], in assay [2], in [11], in assay [4] and in assay [6] was greater than 100 µM each time. The TGI in assay [7], in [8] and in assay [9] was greater than 100 µM in each case.

On to `CC(C)CC(NC(=O)OC(C)(C)C)C(=O)NC(CC(=O)OCc1ccccc1)C(=O)OCc1ccccc1` (stereo not drawn) (Boc-Leu-Asp(OBn)-OBn; configuration not given here), for which the TGI was greater than 100 µM in assay [10]; 50.9 µM in assay [1]; greater than 100 µM in assay [2]; 96.7 µM in assay [11]; greater than 100 µM in assay [4]; 49.7 µM in assay [5]. The results for the TGI in [7], in assay [8] and in [9] were 56.8 µM, greater than 100 µM and 81.7 µM, respectively.

For the molecule `CCC(COC(=O)CC[C@@H](NC(=O)C(C)NC(=O)C(C)OC1C(O)C(CO)OC(OCc2ccccc2)C1NC(C)=O)C(N)=O)NC1c2ccccc2Nc2cccc([N+](=O)[O-])c21` (some centres not stated), the TGI in assay [12], in assay [1], in assay [2], in assay [3], in assay [11] and in assay [4] was greater than 100 µM throughout. Also, the TGI in [5], in assay [6], in [7], in assay [8] and in [9] was greater than 100 µM throughout.

As to `[O-][n+]1c(CN2CCCCC2)nc2cccc3c2c1-c1ccccc1-3`, the TGI was greater than 100 µM in assay [10]; 46.1 µM in assay [1]; 81.7 µM in assay [2]; 88.4 µM in assay [11]; 39.4 µM in assay [4]; 46.8 µM in assay [5]. Also, the TGI is 31.8 µM in [7], greater than 100 µM in assay [8] and greater than 100 µM in assay [9].

As to `O=c1c2ccccc2nc(-c2ccccc2)n1NC(=S)Nc1ccc(Cl)cc1`, the TGI in [1], in [2], in assay [3], in [11], in [4] and in assay [5] was greater than 100 µM each time. Also, the TGI in assay [8] and in assay [9] was greater than 100 µM each time.
